Columns and labels:
Assay type in all cases: cell-based
human TLR7 = target: T1, human TLR7 (Homo sapiens, UniProt Q9NYK1); assay: TLR7 inhibition reporter assay (HEK-Blue SEAP); conditions: HEK-Blue cells overexpressing human TLR7, stimulated with gardiquimod 7.5 μM, 22 hour incubation
T1 construct: host or cells: HEK-Blue cells
T1 sequence (Q9NYK1 27-1049): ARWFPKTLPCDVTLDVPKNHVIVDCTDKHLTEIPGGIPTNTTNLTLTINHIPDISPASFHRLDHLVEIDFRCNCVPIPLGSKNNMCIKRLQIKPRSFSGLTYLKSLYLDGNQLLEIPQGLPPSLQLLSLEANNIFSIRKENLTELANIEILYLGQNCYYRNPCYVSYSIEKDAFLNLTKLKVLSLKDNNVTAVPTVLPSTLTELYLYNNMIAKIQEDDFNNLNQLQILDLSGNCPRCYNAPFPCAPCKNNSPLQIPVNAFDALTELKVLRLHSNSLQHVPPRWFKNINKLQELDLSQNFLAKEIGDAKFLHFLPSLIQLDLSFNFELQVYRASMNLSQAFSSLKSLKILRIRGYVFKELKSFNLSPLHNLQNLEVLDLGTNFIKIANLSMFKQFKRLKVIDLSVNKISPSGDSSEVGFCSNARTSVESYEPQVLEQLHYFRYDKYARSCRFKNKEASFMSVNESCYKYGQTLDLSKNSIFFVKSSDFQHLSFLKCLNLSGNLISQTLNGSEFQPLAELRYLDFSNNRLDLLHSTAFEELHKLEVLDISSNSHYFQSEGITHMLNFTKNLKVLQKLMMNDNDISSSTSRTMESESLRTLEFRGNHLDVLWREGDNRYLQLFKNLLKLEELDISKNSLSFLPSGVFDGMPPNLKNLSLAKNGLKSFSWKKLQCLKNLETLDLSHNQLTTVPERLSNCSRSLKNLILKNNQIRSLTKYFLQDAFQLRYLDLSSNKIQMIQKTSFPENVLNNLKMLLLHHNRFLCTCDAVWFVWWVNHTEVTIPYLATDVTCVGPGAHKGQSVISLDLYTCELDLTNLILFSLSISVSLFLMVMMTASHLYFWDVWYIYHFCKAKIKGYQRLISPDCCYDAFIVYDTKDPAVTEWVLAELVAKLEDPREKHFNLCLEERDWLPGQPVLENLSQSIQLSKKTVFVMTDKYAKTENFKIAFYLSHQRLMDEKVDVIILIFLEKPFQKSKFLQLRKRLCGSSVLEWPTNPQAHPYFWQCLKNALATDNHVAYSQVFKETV
How it was run: (§1)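 SEAP read-out via HEK-Blue Detection medium after 22 h at 37 °C; percent inhibition relative to agonist-plus-DMSO and known-inhibitor wells. Agonists: TLR7 gardiquimod 7.5 μM, TLR8 R848 15.9 μM, TLR9 ODN2006 5 nM. Dose range 0.05 nM–50 μM, 30 min compound pre-treatment at RT.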

human TLR8 = target: T2, human TLR8 (Homo sapiens, UniProt Q9NR97); assay: TLR8 inhibition reporter assay (HEK-Blue SEAP); conditions: HEK-Blue cells overexpressing human TLR8, stimulated with R848 15.9 μM, 22 hour incubation
T2 construct: host or cells: HEK-Blue cells
T2 sequence (Q9NR97 27-1041): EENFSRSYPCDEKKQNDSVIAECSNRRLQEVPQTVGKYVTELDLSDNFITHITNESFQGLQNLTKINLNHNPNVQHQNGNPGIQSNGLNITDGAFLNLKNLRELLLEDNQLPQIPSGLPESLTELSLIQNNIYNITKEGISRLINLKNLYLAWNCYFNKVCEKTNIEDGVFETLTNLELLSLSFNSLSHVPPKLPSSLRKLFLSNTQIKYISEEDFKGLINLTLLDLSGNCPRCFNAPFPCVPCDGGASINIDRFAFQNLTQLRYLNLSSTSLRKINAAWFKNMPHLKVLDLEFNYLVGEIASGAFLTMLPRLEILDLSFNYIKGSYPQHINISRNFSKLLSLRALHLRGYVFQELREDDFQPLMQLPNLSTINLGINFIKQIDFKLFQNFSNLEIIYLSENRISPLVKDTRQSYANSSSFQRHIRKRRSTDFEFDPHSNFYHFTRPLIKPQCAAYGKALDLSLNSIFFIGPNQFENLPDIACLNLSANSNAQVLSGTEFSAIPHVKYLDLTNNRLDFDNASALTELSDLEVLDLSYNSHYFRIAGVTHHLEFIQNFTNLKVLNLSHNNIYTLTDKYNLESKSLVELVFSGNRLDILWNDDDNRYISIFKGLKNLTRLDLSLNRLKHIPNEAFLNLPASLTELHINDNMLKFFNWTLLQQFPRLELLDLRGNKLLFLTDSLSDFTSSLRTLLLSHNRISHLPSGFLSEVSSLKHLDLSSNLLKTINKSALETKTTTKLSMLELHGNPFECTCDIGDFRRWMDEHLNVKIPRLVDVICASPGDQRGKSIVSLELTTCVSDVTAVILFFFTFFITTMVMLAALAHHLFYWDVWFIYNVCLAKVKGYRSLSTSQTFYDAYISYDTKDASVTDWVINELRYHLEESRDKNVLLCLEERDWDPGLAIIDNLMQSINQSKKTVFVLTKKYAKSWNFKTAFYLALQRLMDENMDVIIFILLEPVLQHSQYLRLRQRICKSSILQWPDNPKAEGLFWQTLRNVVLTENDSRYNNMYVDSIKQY
How it was run: as §1

human TLR9 = target: T3, human TLR9 (Homo sapiens, UniProt Q9NR96); assay: TLR9 inhibition reporter assay (HEK-Blue SEAP); conditions: HEK-Blue cells overexpressing human TLR9, stimulated with ODN2006 5 nM, 22 hour incubation
T3 construct: host or cells: HEK-Blue cells
T3 sequence (Q9NR96 26-1032): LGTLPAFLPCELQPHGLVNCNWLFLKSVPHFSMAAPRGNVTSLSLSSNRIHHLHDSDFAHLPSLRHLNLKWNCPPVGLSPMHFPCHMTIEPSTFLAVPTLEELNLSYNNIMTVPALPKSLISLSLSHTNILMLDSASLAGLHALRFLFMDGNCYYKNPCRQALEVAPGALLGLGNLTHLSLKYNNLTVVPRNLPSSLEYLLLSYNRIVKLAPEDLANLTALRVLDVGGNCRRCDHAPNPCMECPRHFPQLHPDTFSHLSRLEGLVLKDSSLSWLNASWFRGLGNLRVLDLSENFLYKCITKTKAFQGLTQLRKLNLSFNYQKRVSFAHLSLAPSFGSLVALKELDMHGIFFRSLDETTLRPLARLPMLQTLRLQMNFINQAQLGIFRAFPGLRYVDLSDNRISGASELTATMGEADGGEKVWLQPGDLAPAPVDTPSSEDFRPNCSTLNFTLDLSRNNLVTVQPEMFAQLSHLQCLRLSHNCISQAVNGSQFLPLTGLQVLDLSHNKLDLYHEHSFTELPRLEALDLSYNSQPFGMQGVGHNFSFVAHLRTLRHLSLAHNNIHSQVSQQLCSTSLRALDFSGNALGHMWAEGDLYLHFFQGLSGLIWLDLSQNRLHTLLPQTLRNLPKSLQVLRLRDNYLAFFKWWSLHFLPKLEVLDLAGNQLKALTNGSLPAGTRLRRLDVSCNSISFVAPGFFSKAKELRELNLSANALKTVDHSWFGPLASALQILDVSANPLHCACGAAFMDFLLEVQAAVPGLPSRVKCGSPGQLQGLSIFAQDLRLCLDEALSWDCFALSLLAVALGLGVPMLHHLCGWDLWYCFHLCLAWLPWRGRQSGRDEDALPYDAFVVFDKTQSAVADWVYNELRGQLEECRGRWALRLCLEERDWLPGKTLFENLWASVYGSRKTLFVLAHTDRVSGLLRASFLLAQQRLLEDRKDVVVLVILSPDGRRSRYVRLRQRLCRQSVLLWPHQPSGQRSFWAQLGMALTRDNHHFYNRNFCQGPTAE
How it was run: as §1

`CNC(=O)CN1CCC(COc2ccc3[nH]c(-c4cc(C)c5ncnn5c4)c(C(C)C)c3c2)CC1` [Example 113, 2-(4-(((3-isopropyl-2-(8-methyl-[1,2,4]triazolo[1,5-a]pyridin-6-yl)-1H-indol-5-yl)oxy)methyl)piperidin-1-yl)-N-methylacetamide] was tested, and the IC50 (human TLR7) was 1.4 nM, the IC50 (human TLR8) was 7.6 nM and the IC50 (human TLR9) was 6690 nM.
